Patent publication US8293682B2, “Growth regulators for gramineous weeds” (Rikengreen Co., Ltd., priority 2008, dated 2012)

Experiments:
Assay type in all cases: in vivo
[1] = test system: annual bluegrass (Poa annua L.); assay: Test Example 2: count of ear emergence, poly-cup, applications at intervals / alternate application
Experimental: At the initial stage of the ear emergence of annual bluegrass (Poa annua L.) grown in a poly-cup of 11 cm×11 cm, benzyladenine (Beanine for painting; made by Rikengreen; containing 1% benzyladenine) and/or ethephon (Ethrel 10 soluble concentrate; Nissan Chemical Industries; containing 10% ethephon) were diluted in a predetermined amount of water, and a spreader (Riken Sprayzer (registered trade mark); made by Rikengreen) was added so as to be 1/1,000-fold concentration; the respectively diluted solutions were applied by atomization at a dose and intervals as indicated in Table (scattered solution: 200 mL/m^2), and the number of emerged ears of annual bluegrass (Poa annua L.) in the cup was counted through time. The test was carried out serially. […] The symbol “●” in Table indicates the treatment with benzyladenine, “◯” the treatment with ethephon, and “−” untreated. Dose means the amount at a single application.

[2] = test system: annual bluegrass (Poa annua L.); assay: Test Example 3: number of emerged ears and leaves, poly-cup, two applications; details: for Ear (number of emerged ears in the cup) / [Leaf] (number of leaves within 6 cm×6 cm): 2nd application after 29 days
Experimental: At the initial stage of the ear emergence of annual bluegrass (Poa annua L.) grown in a poly-cup of 11 cm×11 cm, benzyladenine (Beanine for painting; made by Rikengreen; containing 1% benzyladenine) and ethephon (Ethrel 10 soluble concentrate; Nissan Chemical Industries; containing 10% ethephon) were diluted in a predetermined amount of water, and a spreader (Riken Sprayzer (registered trade mark); made by Rikengreen) was added so as to be 1/1,000-fold concentration; the respectively diluted solutions were applied by atomization at a dose as indicated in Table (scattered solution: 200 mL/m^2), and after a lapse of 29 days, the 2nd application was carried out. Then, the number of emerged ears of annual bluegrass (Poa annua L.) in the cup was counted. Further, the number of leaves [Leaf] of annual bluegrass (Poa annua L.) was counted within the area of 6 cm×6 cm in the cup. The test was carried out serially. […] Dose means the amount at a single application.

[3] = test system: annual bluegrass (Poa annua L.); assay: Test Example 4: field test in bent green turf, emerged ear number; details: applied Day 0 and after 30 days
Experimental: In a bent green turf where annual bluegrasses (Poa annua L.) were grown, a test zone of 1 m×1 m was provided. Benzyladenine (Beanine for painting; made by Rikengreen; containing 1% benzyladenine) and ethephon (Ethrel 10 soluble concentrate; Nissan Chemical Industries; containing 10% ethephon) were diluted in a predetermined amount of water, and a spreader (Riken Sprayzer (registered trade mark); made by Rikengreen) was added so as to be 1/1,000-fold concentration. The respectively diluted solutions were applied to each test zone at the first application (Day 0) at a dose as indicated in Table, and after a lapse of 30 days the second application was carried out. The amount of solution scattered was 100 mL/m^2 both in the first and second applications. The number of ear emergence of annual bluegrass (Poa annua L.) within the area of 10×10 cm was counted at regular intervals at 3 spots per zone. […] Dose means the amount at a single application.

[4] = test system: southern crabgrasses (Digitaria ciliaris Koel.); assay: Test Example 5: field test in Manilagrass turf, inhibitory effect for ear emergence
Experimental: In a Manilagrass (Zoysia matrella) turf where southern crabgrasses (Digitaria ciliaris Koel.) were grown, a test zone of 1 m×1 m was provided. Benzyladenine (Beanine for painting; made by Rikengreen; containing 1% benzyladenine) and ethephon (Ethrel 10 soluble concentrate; Nissan Chemical Industries; containing 10% ethephon) were diluted in a predetermined amount of water. The respectively diluted solutions were applied to each test zone at the first application (Day 0) at a dose as indicated in Table, and after a lapse of 17 days the second application was carried out. The first application was conducted before the ear emergence of southern crabgrasses (Digitaria ciliaris Koel.). The amount of solution scattered was 150 mL/m^2 both in the first and second applications. The inhibitory effect for the ear emergence of southern crabgrasses (Digitaria ciliaris Koel.) within the area of 1 m×1 m was evaluated according to the standard as described in Table 7. […] The symbol “●” in Table 8 indicates the treatment with each agent, and “−” means untreated. Dose means the amount at a single application.

[5] = Day 46, Benzyladenine + Ethephon 2 + 0 mg a.i./m^2
[6] = Day 46, Benzyladenine + Ethephon 4 + 0 mg a.i./m^2

## c1ccc(CNc2ncnc3nc[nH]c23)cc1 [Benzyladenine, 6-benzylaminopurine]
[1]; Day 25, Benzyladenine 0.67 mg a.i./m^2 applied Day 0, 6, 12
  Count of ear emergence: 37
[1]; Day 25, Benzyladenine 0.67 mg a.i./m^2 applied Day 6, 12
  Count of ear emergence: 34
[1]; Day 25, Benzyladenine 0.67 mg a.i./m^2 applied Day 12
  Count of ear emergence: 37
[1]; Day 25, Benzyladenine 2 mg a.i./m^2 applied Day 0, 6, 12
  Count of ear emergence: 20
[1]; Day 25, Benzyladenine 2 mg a.i./m^2 applied Day 6, 12
  Count of ear emergence: 14
[1]; Day 25, Benzyladenine 2 mg a.i./m^2 applied Day 12
  Count of ear emergence: 22
[1]; Day 33, Benzyladenine 0.67 mg a.i./m^2 applied Day 0, 6, 12
  Count of ear emergence: 50
[1]; Day 33, Benzyladenine 0.67 mg a.i./m^2 applied Day 6, 12
  Count of ear emergence: 24
[1]; Day 33, Benzyladenine 0.67 mg a.i./m^2 applied Day 12
  Count of ear emergence: 28
[1]; Day 33, Benzyladenine 2 mg a.i./m^2 applied Day 0, 6, 12
  Count of ear emergence: 26
[1]; Day 33, Benzyladenine 2 mg a.i./m^2 applied Day 6, 12
  Count of ear emergence: 15
[1]; Day 33, Benzyladenine 2 mg a.i./m^2 applied Day 12
  Count of ear emergence: 23
[2]; Day 23, Benzyladenine + Ethephon 2 + 0 mg a.i./m^2
  Ear (number of emerged ears in the cup): 12
[2]; Day 23, Benzyladenine + Ethephon 4 + 0 mg a.i./m^2
  Ear (number of emerged ears in the cup): 2
[2]; [5]
  Ear (number of emerged ears in the cup): 54
  [Leaf] (number of leaves within 6 cm×6 cm): [105]
[2]; [6]
  Ear (number of emerged ears in the cup): 55
  [Leaf] (number of leaves within 6 cm×6 cm): [108]
[2]; Day 53, Benzyladenine + Ethephon 2 + 0 mg a.i./m^2
  Ear (number of emerged ears in the cup): 43
[2]; Day 53, Benzyladenine + Ethephon 4 + 0 mg a.i./m^2
  Ear (number of emerged ears in the cup): 48
[2]; Test Example 3
  inhibition of ear emergence (summary in words): strongly inhibits the ear emergence
  number of leaves (bud number) (summary in words): increases the number of leaves
[3]; Day 22, Ethephon 0, Benzyladenine 4 mg a.i./m^2
  Ear (mean emerged ear number within 10×10 cm): 62.3
[3]; Day 22, Ethephon 0, Benzyladenine 8 mg a.i./m^2
  Ear (mean emerged ear number within 10×10 cm): 34.3
[3]; Day 22, Ethephon 0, Benzyladenine 12 mg a.i./m^2
  Ear (mean emerged ear number within 10×10 cm): 27.0
[3]; Day 41, Ethephon 0, Benzyladenine 4 mg a.i./m^2
  Ear (mean emerged ear number within 10×10 cm): 150.3
[3]; Day 41, Ethephon 0, Benzyladenine 8 mg a.i./m^2
  Ear (mean emerged ear number within 10×10 cm): 59.7
[3]; Day 41, Ethephon 0, Benzyladenine 12 mg a.i./m^2
  Ear (mean emerged ear number within 10×10 cm): 32.7
[3]; Day 61, Ethephon 0, Benzyladenine 4 mg a.i./m^2
  Ear (mean emerged ear number within 10×10 cm): 107.0
[3]; Day 61, Ethephon 0, Benzyladenine 8 mg a.i./m^2
  Ear (mean emerged ear number within 10×10 cm): 53.0
[3]; Day 61, Ethephon 0, Benzyladenine 12 mg a.i./m^2
  Ear (mean emerged ear number within 10×10 cm): 41.0
[4]; Day 18, Benzyladenine 2.5 mg a.i./m^2, applied Day 0
  Evaluation: index of inhibitory effect for ear emergence: 0 (0% or more-less than 10%)
[4]; Day 18, Benzyladenine 5 mg a.i./m^2, applied Day 0
  Evaluation: index of inhibitory effect for ear emergence: 0 (0% or more-less than 10%)
[4]; Day 18, Benzyladenine 10 mg a.i./m^2, applied Day 0
  Evaluation: index of inhibitory effect for ear emergence: 2 (20% or more-less than 30%)
[4]; Day 18, Benzyladenine 15 mg a.i./m^2, applied Day 0
  Evaluation: index of inhibitory effect for ear emergence: 10 (100%)
[4]; Day 26, Benzyladenine 2.5 mg a.i./m^2, applied Day 0
  Evaluation: index of inhibitory effect for ear emergence: 0 (0% or more-less than 10%)
[4]; Day 26, Benzyladenine 2.5 mg a.i./m^2, applied Day 0 and Day 17
  Evaluation: index of inhibitory effect for ear emergence: 1 (10% or more-less than 20%)
[4]; Day 26, Benzyladenine 5 mg a.i./m^2, applied Day 0
  Evaluation: index of inhibitory effect for ear emergence: 0 (0% or more-less than 10%)
[4]; Day 26, Benzyladenine 5 mg a.i./m^2, applied Day 0 and Day 17
  Evaluation: index of inhibitory effect for ear emergence: 2 (20% or more-less than 30%)
[4]; Day 26, Benzyladenine 10 mg a.i./m^2, applied Day 0
  Evaluation: index of inhibitory effect for ear emergence: 2 (20% or more-less than 30%)
[4]; Day 26, Benzyladenine 10 mg a.i./m^2, applied Day 0 and Day 17
  Evaluation: index of inhibitory effect for ear emergence: 6 (60% or more-less than 70%)
[4]; Day 26, Benzyladenine 15 mg a.i./m^2, applied Day 0
  Evaluation: index of inhibitory effect for ear emergence: 9 (90% or more-less than 100%)
[4]; Day 26, Benzyladenine 15 mg a.i./m^2, applied Day 0 and Day 17
  Evaluation: index of inhibitory effect for ear emergence: 10 (100%)
[4]; Day 33, Benzyladenine 2.5 mg a.i./m^2, applied Day 0
  Evaluation: index of inhibitory effect for ear emergence: 0 (0% or more-less than 10%)
[4]; Day 33, Benzyladenine 2.5 mg a.i./m^2, applied Day 0 and Day 17
  Evaluation: index of inhibitory effect for ear emergence: 3 (30% or more-less than 40%)
[4]; Day 33, Benzyladenine 5 mg a.i./m^2, applied Day 0
  Evaluation: index of inhibitory effect for ear emergence: 1 (10% or more-less than 20%)
[4]; Day 33, Benzyladenine 5 mg a.i./m^2, applied Day 0 and Day 17
  Evaluation: index of inhibitory effect for ear emergence: 3 (30% or more-less than 40%)
[4]; Day 33, Benzyladenine 10 mg a.i./m^2, applied Day 0
  Evaluation: index of inhibitory effect for ear emergence: 5 (50% or more-less than 60%)
[4]; Day 33, Benzyladenine 10 mg a.i./m^2, applied Day 0 and Day 17
  Evaluation: index of inhibitory effect for ear emergence: 7 (70% or more-less than 80%)
[4]; Day 33, Benzyladenine 15 mg a.i./m^2, applied Day 0
  Evaluation: index of inhibitory effect for ear emergence: 7 (70% or more-less than 80%)
[4]; Day 33, Benzyladenine 15 mg a.i./m^2, applied Day 0 and Day 17
  Evaluation: index of inhibitory effect for ear emergence: 8 (80% or more-less than 90%)
[4]; Day 41, Benzyladenine 2.5 mg a.i./m^2, applied Day 0
  Evaluation: index of inhibitory effect for ear emergence: 0 (0% or more-less than 10%)
[4]; Day 41, Benzyladenine 2.5 mg a.i./m^2, applied Day 0 and Day 17
  Evaluation: index of inhibitory effect for ear emergence: 1 (10% or more-less than 20%)
[4]; Day 41, Benzyladenine 5 mg a.i./m^2, applied Day 0
  Evaluation: index of inhibitory effect for ear emergence: 2 (20% or more-less than 30%)
[4]; Day 41, Benzyladenine 5 mg a.i./m^2, applied Day 0 and Day 17
  Evaluation: index of inhibitory effect for ear emergence: 5 (50% or more-less than 60%)
[4]; Day 41, Benzyladenine 10 mg a.i./m^2, applied Day 0
  Evaluation: index of inhibitory effect for ear emergence: 2 (20% or more-less than 30%)
[4]; Day 41, Benzyladenine 10 mg a.i./m^2, applied Day 0 and Day 17
  Evaluation: index of inhibitory effect for ear emergence: 6 (60% or more-less than 70%)
[4]; Day 41, Benzyladenine 15 mg a.i./m^2, applied Day 0
  Evaluation: index of inhibitory effect for ear emergence: 4 (40% or more-less than 50%)
[4]; Day 41, Benzyladenine 15 mg a.i./m^2, applied Day 0 and Day 17
  Evaluation: index of inhibitory effect for ear emergence: 8 (80% or more-less than 90%)
